In the supplement of paper PMC4862054:

Columns and labels:
Conditions in all cases: incubation time: 72 h
HDQ-P1 = experiment: normalised response (% of control), CellTiter-Glo; higher = more viable cells (100 = DMSO, 0 = benzethonium chloride kill control)
In short: (§1)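 Plates were normalised with 0.1 % DMSO as 100 and a positive kill control as 0. Breast cancer cell lines in 20 µl suspension had been seeded into 384-well plates with compound at 5 concentrations in 10-fold steps over a compound-specific 10,000-fold range, incubated 72 h, and read for CellTox Green fluorescence (485/520 nm) followed by CellTiter-Glo luminescence. Each value is the normalised signal at a single concentration.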

MDA-MB-231 [1] = experiment: as above
In short: as §1

DU-4475 [2] = experiment: as above
In short: as §1

Hs578T [3] = experiment: as above
In short: as §1

BT-549 [4] = experiment: as above
In short: as §1

CAL-85-1 [5] = experiment: as above
In short: as §1

HCC1599 [6] = experiment: as above
In short: as §1

MDA-MB-436 [7] = experiment: as above
In short: as §1

CAL-148 [8] = experiment: as above
In short: as §1

MCF-10A [9] = experiment: as above
In short: as §1

BT-474 [10] = experiment: as above
In short: as §1

MDA-MB-453 [11] = experiment: as above
In short: as §1

CAL-120 [12] = experiment: as above
In short: as §1

HCC1143 [13] = experiment: as above
In short: as §1

CAL-51 [14] = experiment: as above
In short: as §1

HCC1937 [15] = experiment: as above
In short: as §1

MFM-223 [16] = experiment: as above
In short: as §1

MDA-MB-468 [17] = experiment: as above
In short: as §1

SK-BR-3 = experiment: as above
In short: as §1

MDA-MB-231 [18] = experiment: normalised response (% of control), CellTox Green; higher = less cell death (100 = DMSO, 0 = benzethonium chloride kill control)
In short: as §1

DU-4475 [19] = experiment: as above
In short: as §1

Hs578T [20] = experiment: as above
In short: as §1

BT-549 [21] = experiment: as above
In short: as §1

CAL-85-1 [22] = experiment: as above
In short: as §1

HCC1599 [23] = experiment: as above
In short: as §1

MDA-MB-436 [24] = experiment: as above
In short: as §1

CAL-148 [25] = experiment: as above
In short: as §1

MCF-10A [26] = experiment: as above
In short: as §1

BT-474 [27] = experiment: as above
In short: as §1

MDA-MB-453 [28] = experiment: as above
In short: as §1

CAL-120 [29] = experiment: as above
In short: as §1

HCC1143 [30] = experiment: as above
In short: as §1

CAL-51 [31] = experiment: as above
In short: as §1

HCC1937 [32] = experiment: as above
In short: as §1

MFM-223 [33] = experiment: as above
In short: as §1

MDA-MB-468 [34] = experiment: as above
In short: as §1

SMILES	normalised response (HDQ-P1)	normalised response (MDA-MB-231 [1])	normalised response (DU-4475 [2])	normalised response (Hs578T [3])	normalised response (BT-549 [4])	normalised response (CAL-85-1 [5])	normalised response (HCC1599 [6])	normalised response (MDA-MB-436 [7])	normalised response (CAL-148 [8])	normalised response (MCF-10A [9])	normalised response (BT-474 [10])	normalised response (MDA-MB-453 [11])	normalised response (CAL-120 [12])	normalised response (HCC1143 [13])	normalised response (CAL-51 [14])	normalised response (HCC1937 [15])	normalised response (MFM-223 [16])	normalised response (MDA-MB-468 [17])	normalised response (SK-BR-3)	normalised response (MDA-MB-231 [18])	normalised response (DU-4475 [19])	normalised response (Hs578T [20])	normalised response (BT-549 [21])	normalised response (CAL-85-1 [22])	normalised response (HCC1599 [23])	normalised response (MDA-MB-436 [24])	normalised response (CAL-148 [25])	normalised response (MCF-10A [26])	normalised response (BT-474 [27])	normalised response (MDA-MB-453 [28])	normalised response (CAL-120 [29])	normalised response (HCC1143 [30])	normalised response (CAL-51 [31])	normalised response (HCC1937 [32])	normalised response (MFM-223 [33])	normalised response (MDA-MB-468 [34])
CCc1cncnc1N1CCN(Cc2nc3ccc(C(F)(F)F)cc3[nH]2)CC1 (1000 nM)	103%	99.4%	93.4%	98.5%	83.6%	97.7%	98.8%	106%	103%	103%	96.7%	94.8%	98.1%	102%	67%	91.1%	106%	90.3%	112%	98.9%	104%	100%	109%	106%	97.5%	84.2%	100%	111%	102%	94.2%	98.6%	79.2%	97%	111%	101%	114%
CC[C@@H]1C(=O)N(C)c2cnc(Nc3ccc(C(=O)NC4CCN(C)CC4)cc3OC)nc2N1C1CCCC1 [BI 2536] (100 nM)	84%	51%	63.3%	38.8%	23.6%	81.7%	37.9%	53.1%	68.1%	60.3%	55.9%	86.5%	63.4%	47.5%	21.9%	86.7%	49.1%	47.9%	17.6%	24.3%	98.5%	82%	93%	71.5%	91.7%	82.5%	97.7%	36.6%	100%	103%	87.1%	79.2%	49.6%	113%	70.5%	73.3%
O=C(O)CCCCC(CCSCc1ccccc1)SCc1ccccc1 (centres undefined) [CPI-613] (1000 nM)	102%	102%	99.1%	106%	102%	97.1%	108%	99.5%	100%	103%	98.5%	103%	98.1%	102%	114%	101%	108%	108%	100%	109%	100%	103%	92.6%	96.8%	95.5%	81.4%	94.6%	92.8%	98.6%	103%	102%	58.7%	111%	117%	98.7%	114%
COc1cc2c(Oc3ccc4[nH]c(C)cc4c3F)ncnc2cc1OCCCN1CCCC1 [Cediranib] (100 nM)	102%	103%	97.3%	104%	108%	100%	98%	106%	103%	95.4%	104%	102%	103%	97.3%	107%	98.1%	97.9%	111%	103%	113%	98.4%	97.6%	126%	91.2%	102%	90.2%	106%	98.1%	104%	105%	96.8%	112%	109%	123%	84.1%	98.6%
